Active and inactive are the calls of the source. The calls are words filed in the database; no cut-off is given here.
What was measured:
Rattus norvegicus [1] = test: (§1) Antidiabetic activity in high fat diet-STZ induced diabetic Wistar rat model assessed as triglyceride level at 30 mg/kg, ip pretreated with high fat diet for 4 weeks followed by 8 hrs fasting after STZ administration and measured 4 weeks after compound treatment (reference value: 17.05 +/- 0.803 mmol/L); type: functional
Rattus norvegicus [2] = test: as §1, with “glucose” for “triglyceride”, “level in serum” for “level”, “10” for “30”, “527.7” for “17.05”, “49.1 mg%)” for “0.803 mmol/L)”; type: functional
Rattus norvegicus [3] = test: (§2) Antidiabetic activity in high fat diet-STZ induced diabetic Wistar rat model assessed as mean area percentage of LC3B in liver at 30 mg/kg, ip pretreated with high fat diet for 4 weeks followed by 8 hrs fasting after STZ administration and measured after 4 weeks of compound treatment by immunohistochemistry based microscopic analysis (reference value: 0.742 +/- 0.143 %); type: functional
Rattus norvegicus [4] = test: as §2, with “TNF alpha” for “LC3B”, “18.28” for “0.742”, “1.31” for “0.143”; type: functional
Rattus norvegicus [5] = test: as §1, with “insulin” for “triglyceride”, “level in serum” for “level”, “20” for “30”, “treatment by ELISA” for “treatment”, “16.53” for “17.05”, “1.14 microU/ml)” for “0.803 mmol/L)”; type: functional
Rattus norvegicus [6] = test: Antidiabetic activity in high fat diet-STZ induced diabetic Wistar rat model assessed as AST level at 20 mg/kg, ip pretreated with high fat diet for 4 weeks followed by 8 hrs fasting after STZ administration and measured 4 weeks after compound treatment (reference value: 136.3 +/- 22.8 IU/L); type: functional
Rattus norvegicus [7] = test: Antidiabetic activity in high fat diet-STZ induced diabetic Wistar rat model assessed as increase in AC074117.2 lncRNA expression in liver at 10 to 30 mg/kg, ip pretreated with high fat diet for 4 weeks followed by 8 hrs fasting after STZ administration and measured 4 weeks after compound treatment by RT-qPCR analysis; type: functional, organism-based; conditions: dose 10-30 mg/kg
Rattus norvegicus [8] = test: (§3) Antidiabetic activity in high fat diet-STZ induced diabetic Wistar rat model assessed as reduction in tubular degenerative changes in kidney at 10 mg/kg, ip pretreated with high fat diet for 4 weeks followed by 8 hrs fasting after STZ administration and measured 4 weeks after compound treatment by hematoxylin and eosin staining based microscopic analysis; type: functional, organism-based
Rattus norvegicus [9] = test: as §3, with “protection against diffuse hepatocellular microvesicular steatosis” for “reduction in tubular degenerative changes in kidney”; type: functional, organism-based
Rattus norvegicus [10] = test: as §3, with “abnormal infiltrates” for “tubular degenerative changes”, “liver” for “kidney”, “20” for “10”; type: functional, organism-based
Rattus norvegicus [11] = test: (§4) Antidiabetic activity in ip dosed high fat diet-STZ induced diabetic Wistar rat model assessed as reduction of miR-1976 expression in liver pretreated with high fat diet for 4 weeks followed by 8 hrs fasting after STZ administration and measured 4 weeks after compound treatment by RT-qPCR analysis; type: functional, organism-based; conditions: dose 10-30 mg/kg
Rattus norvegicus [12] = test: as §1, with “10” for “30”; type: functional
Rattus norvegicus [13] = test: as §1, with “LDL-cholesterol” for “triglyceride”, “10” for “30”, “6.54” for “17.05”, “0.918” for “0.803”; type: functional
Rattus norvegicus [14] = test: Antidiabetic activity in high fat diet-STZ induced diabetic Wistar rat model assessed as AST level at 30 mg/kg, ip pretreated with high fat diet for 4 weeks followed by 8 hrs fasting after STZ administration and measured 4 weeks after compound treatment (reference value: 136.3 +/- 22.8 IU/L); type: functional
Rattus norvegicus [15] = test: as §4, with “DDX58 mRNA” for “miR-1976”, “adipose tissue” for “liver”; type: functional, organism-based; conditions: dose 10-30 mg/kg
Rattus norvegicus [16] = test: as §1, with “blood urea nitrogen” for “triglyceride”, “10” for “30”, “466.4” for “17.05”, “51.16 mg%)” for “0.803 mmol/L)”; type: functional
Rattus norvegicus [17] = test: as §4, with “adipose tissue” for “liver”; type: functional, organism-based; conditions: dose 10-30 mg/kg
Rattus norvegicus [18] = test: as §3, with “inflammatory infiltrates” for “tubular degenerative changes”, “30” for “10”; type: functional, organism-based
Rattus norvegicus [19] = test: Antidiabetic activity in high fat diet-STZ induced diabetic Wistar rat model assessed as increase in body weight at 10 to 30 mg/kg, ip pretreated with high fat diet for 4 weeks followed by 8 hrs fasting after STZ administration and measured 4 weeks after compound treatment; type: functional, organism-based; conditions: dose 10-30 mg/kg
Rattus norvegicus [20] = test: (§5) Antidiabetic activity in high fat diet-STZ induced diabetic Wistar rat model assessed as HOMA-IR level at 20 mg/kg, ip pretreated with high fat diet for 4 weeks followed by 8 hrs fasting after STZ administration and measured 4 weeks after compound treatment (reference value: 21.51 +/- 2.17); type: functional
Rattus norvegicus [21] = test: as §3, with “intact” for “reduction in”, “segments” for “degenerative changes”, “20 to 30” for “10”; type: functional, organism-based; conditions: dose 20-30 mg/kg
Rattus norvegicus [22] = test: Antidiabetic activity in high fat diet-STZ induced diabetic Wistar rat model assessed as creatinine level at 10 mg/kg, ip pretreated with high fat diet for 4 weeks followed by 8 hrs fasting after STZ administration and measured 4 weeks after compound treatment (reference value: 3.88 +/- 0.502 mg%); type: functional
Rattus norvegicus [23] = test: as §4, with “ZBP1 mRNA” for “miR-1976”, “adipose tissue” for “liver”; type: functional, organism-based; conditions: dose 10-30 mg/kg
Rattus norvegicus [24] = test: as §1, with “glucose” for “triglyceride”, “level in serum” for “level”, “527.7” for “17.05”, “49.1 mg%)” for “0.803 mmol/L)”; type: functional
Rattus norvegicus [25] = test: as §1, with “urine albumin to creatinine ratio” for “triglyceride level”, “87.13” for “17.05”, “9.75 mg/g)” for “0.803 mmol/L)”; type: functional
Rattus norvegicus [26] = test: as §1, with “LDL-cholesterol” for “triglyceride”, “6.54” for “17.05”, “0.918” for “0.803”; type: functional
Rattus norvegicus [27] = test: Antidiabetic activity in high fat diet-STZ induced diabetic Wistar rat model assessed as ALT level at 10 mg/kg, ip pretreated with high fat diet for 4 weeks followed by 8 hrs fasting after STZ administration and measured 4 weeks after compound treatment (reference value: 152.1 +/- 23.64 IU/L); type: functional
Rattus norvegicus [28] = test: as §3, with “organized histological features of hepatic parenchyma” for “reduction in tubular degenerative changes in kidney”, “30” for “10”; type: functional, organism-based
Rattus norvegicus [29] = test: as §2, with “TNFalpha” for “LC3B”, “kidney” for “liver”, “24” for “0.742”, “1.5” for “0.143”; type: functional
Rattus norvegicus [30] = test: as §5, with “urine albumin to creatinine ratio” for “HOMA-IR level”, “87.13” for “21.51”, “9.75 mg/g)” for “2.17)”; type: functional
Rattus norvegicus [31] = test: Antidiabetic activity in high fat diet-STZ induced diabetic Wistar rat model assessed as creatinine level at 20 mg/kg, ip pretreated with high fat diet for 4 weeks followed by 8 hrs fasting after STZ administration and measured 4 weeks after compound treatment (reference value: 3.88 +/- 0.502 mg%); type: functional
Rattus norvegicus [32] = test: as §2, with “kidney” for “liver”, “20” for “30”, “2.47” for “0.742”, “0.356” for “0.143”; type: functional

O[C@@H]1[C@@H](O)[C@H](OC/C=C/c2ccccc2)O[C@H](CO[C@@H]2OC[C@H](O)[C@H](O)[C@H]2O)[C@H]1O
Activity (Rattus norvegicus [1]): 4.03 mmol/L
Activity (Rattus norvegicus [2]): 227.7 mg%
Activity (Rattus norvegicus [3]): 13.3%
Activity (Rattus norvegicus [4]): 3.52%
Activity (Rattus norvegicus [5]): 6.4 uU/ml
Activity (Rattus norvegicus [6]): 54.5 IU/L
Activity (Rattus norvegicus [7]): Active
Activity (Rattus norvegicus [8]): inactive
Activity (Rattus norvegicus [9]): inactive
Activity (Rattus norvegicus [10]): Active
Activity (Rattus norvegicus [11]): Dose-Dependent Effect
Activity (Rattus norvegicus [12]): 8.52 mmol/L
Activity (Rattus norvegicus [13]): 3.19 mmol/L
Activity (Rattus norvegicus [14]): 30.25 IU/L
Activity (Rattus norvegicus [15]): Dose-Dependent Effect
Activity (Rattus norvegicus [16]): 254.7 mg%
Activity (Rattus norvegicus [17]): Dose-Dependent Effect
Activity (Rattus norvegicus [18]): Active
Activity (Rattus norvegicus [19]): Active
Activity (Rattus norvegicus [20]): 2.76
Activity (Rattus norvegicus [21]): Active
Activity (Rattus norvegicus [22]): 2.12 mg%
Activity (Rattus norvegicus [23]): Dose-Dependent Effect
Activity (Rattus norvegicus [24]): 123.9 mg%
Activity (Rattus norvegicus [25]): 20.88 mg/g
Activity (Rattus norvegicus [26]): 1.3 mmol/L
Activity (Rattus norvegicus [27]): 79.5 IU/L
Activity (Rattus norvegicus [28]): Active
Activity (Rattus norvegicus [29]): 3.98%
Activity (Rattus norvegicus [30]): 33.38 mg/g
Activity (Rattus norvegicus [31]): 1.51 mg%
Activity (Rattus norvegicus [32]): 11.23%
